Assay results from patent US11273163B2, “Antiviral treatment” (priority 2020, dated 2022).
Where “and” joins values, the source holds several entries; their conditions need not be identical. Identical values can stand only once. Like-named read-outs stand apart in the source and are kept apart here.

Tests used:
[1] = tested on: SARS-CoV-2; test: microbe, parasite or virus in culture; assay type: cell-based; conditions: for reduction of viral particle numbers: up to; for viral particle/μL: 48 h post infection, median
[2] = tested on: SARS-CoV-2 B.1.351; test: microbe, parasite or virus in culture; assay type: cell-based; conditions: Severe acute respiratory syndrome coronavirus 2, Vero/TMPRSS2, 48 h, read-out: inhibition of infection (relative to no azelastine treated cells)
[3] = tested on: SARS-CoV-2 B.1.1.7; test: microbe, parasite or virus in culture; assay type: cell-based; conditions: Severe acute respiratory syndrome coronavirus 2, Vero/TMPRSS2, 48 h, B1.1.7, 48 h, read-out: inhibition of infection (relative to no azelastine treated cells)
[4] = tested on: reconstituted human nasal tissue (MucilAir); conditions: without virus infection
[5] = tested on: SARS-CoV-2; assay type: cell-based; conditions: for cytopathogenic score: Vero E6, MOI 0.1, 48 hours post infection
[6] = tested on: SARS-CoV-2; assay type: cell-based; conditions: Calu-3, MOI 0.01, 48 h
[7] = tested on: RSV Long strain; assay type: cell-based, Respiratory Syncytial Virus; conditions: all 3 settings (preventive, co-administration, therapeutic), 48 h
[8] = tested on: RSV Long strain; assay type: cell-based, Respiratory Syncytial Virus; conditions: 6.4 μM
[9] = tested on: HEp-2 cells; test: Cytotoxicity towards HEp-2 cells, flow cytometry with propidium iodide; assay type: cell-based; conditions: non-infected, 48 h
Procedure: Mean and SEM were calculated from 3 independent experiments.

[10] = tested on: influenza H1N1; assay type: cell-based, influenza A virus H1N1; conditions: hydrochloride

With `CN1CCCC(n2nc(Cc3ccc(Cl)cc3)c3ccccc3c2=O)CC1` (stereo not shown) [Azelastine, 4-[(4-chlorophenyl)methyl]-2-(1-methylazepan-4-yl)phthalazin-1-one] as the compound, how does the EC50 ([1]; Severe acute respiratory syndrome coronavirus 2, Vero C1008, wild-type SARS-CoV-2, read-out: EC50 observed for the wild-type virus) read?
The EC50 was ~6 µM.

What about the “reduction of viral particle numbers” value ([1]; co-administration (simulating prevention)) of the same compound?
Its value is > 99%.

And the “viral particle/μL” value ([1]; co-administration, 3.125 μM)?
The value was 98.4 viral particle/μL.

What about the “viral particle/μL” value ([1]; co-administration, 6.25 μM) of the same compound?
Its value is 15.45 viral particle/μL.

And the “viral particle/μL” value ([1]; co-administration, 12.5 μM)?
Its value is 12.25 viral particle/μL.

And the “viral particle/μL” value ([1]; co-administration, 25 μM)?
Its value is 0.2 viral particle/μL.

And the “viral particle/μL” value ([1]; post-infection administration, 3.125 μM)?
The value was 138 viral particle/μL.

What about the “viral particle/μL” value ([1]; post-infection administration, 6.25 μM) of the same compound?
Its value is 68.4 viral particle/μL.

What about the “viral particle/μL” value ([1]; post-infection administration, 12.5 μM) of the same compound?
Its value is 52 viral particle/μL.

And the “viral particle/μL” value ([1]; post-infection administration, 25 μM)?
Its value is 6.865 viral particle/μL.

And the “reduction of viral particle numbers” value ([1]; post-infection administration)?
Its value is > 97%.

What about the inhibition at 3.125 µM ([2]; preventive setting) of the same compound?
The inhibition at 3.125 µM was 32.9%.

What about the inhibition at 6.25 µM ([2]; preventive setting) of the same compound?
The inhibition at 6.25 µM was 74.9%.

What about the inhibition at 12.5 µM ([2]; preventive setting) of the same compound?
The inhibition at 12.5 µM was 99.1%.

And the inhibition at 3.125 µM ([2]; therapeutic setting)?
Its inhibition at 3.125 µM is 22%.

And the inhibition at 6.25 µM ([2]; therapeutic setting)?
The inhibition at 6.25 µM was 55%.

What about the inhibition at 12.5 µM ([2]; therapeutic setting) of the same compound?
Its inhibition at 12.5 µM is 97.6%.

What about the inhibition at 3.125 µM ([3]; preventive setting) of the same compound?
Its inhibition at 3.125 µM is 23.8%.

What about the inhibition at 6.25 µM ([3]; preventive setting) of the same compound?
The inhibition at 6.25 µM was 72.8%.

And the inhibition at 12.5 µM ([3]; preventive setting)?
The inhibition at 12.5 µM was 98.8%.

What about the inhibition at 3.125 µM ([3]; therapeutic setting) of the same compound?
Its inhibition at 3.125 µM is 2.57%.

And the inhibition at 6.25 µM ([3]; therapeutic setting)?
Its inhibition at 6.25 µM is 47.4%.

And the inhibition at 12.5 µM ([3]; therapeutic setting)?
Its inhibition at 12.5 µM is 91.7%.

And the “tissue morphology versus control” value [4]?
Its value is “No difference in tissue morphology”.

For Maraviroc, which cytopathogenic score ([5]; 3.125 μM) is on record?
The cytopathogenic score was 4.

What about the cytopathogenic score ([5]; 6.25 μM) of the same compound?
Its cytopathogenic score is 4.

And the cytopathogenic score ([5]; 12.5 μM)?
The cytopathogenic score was 3.

What about the cytopathogenic score ([5]; 25 μM) of the same compound?
The cytopathogenic score was 3.

What about the cytopathogenic score ([5]; 50 μM) of the same compound?
The cytopathogenic score was 3.

And the protective effect ([5]; higher concentrations (12.5 to 50 μM))?
The protective effect was “only marginal protective effect”.

What about the protective effect ([5]; lower concentrations) of the same compound?
Its protective effect is “not effective at all”.

`CN1CCCC(n2nc(Cc3ccc(Cl)cc3)c3ccccc3c2=O)CC1.Cl` (stereo not shown) [Azelastine-HCl, 4-[(4-chlorophenyl)methyl]-2-(1-methylazepan-4-yl)phthalazin-1-one; hydrochloride] was tested. Which cytopathogenic score ([5]; 3.125 μM) did it give?
Its cytopathogenic score is 2.

And the cytopathogenic score ([5]; 6.25 μM)?
Its cytopathogenic score is 2.

What about the “reduction of viral particle numbers” value ([6]; 25 μM) of the same compound?
Its value is “over 90%”.

And the “reduction of viral particle numbers” value ([6]; 50 μM, up to)?
The value was > 99%.

And the “RSV infection of cells by spot count, compared to vehicle (DMSO) treated controls” value ([7]; 3.2 μM)?
Its value is ~50%.

And the “RSV infection of cells by spot count, compared to vehicle (DMSO) treated controls” value ([7]; 6.4 μM)?
The value was ~50%.

And the “Ct (cycle threshold in PCR reaction)” value ([8]; co-administration, experiment #1)?
The value was 27.99.

And the “Ct (cycle threshold in PCR reaction)” value ([8]; co-administration, experiment #2)?
Its value is 27.21.

And the “Ct (cycle threshold in PCR reaction)” value ([8]; preventive, experiment #1)?
The value was 27.5.

And the “Ct (cycle threshold in PCR reaction)” value ([8]; preventive, experiment #2)?
Its value is 27.17.

What about the “Ct (cycle threshold in PCR reaction)” value ([8]; therapeutic, experiment #1) of the same compound?
Its value is 27.95.

What about the “Ct (cycle threshold in PCR reaction)” value ([8]; therapeutic, experiment #2) of the same compound?
Its value is 27.27.

And the “cytotoxicity to HEp-2 cells” value ([9]; 12.8 μM)?
The value was “showed cytotoxicity”.

And the “cytotoxicity to HEp-2 cells” value ([9]; 25.6 μM)?
Its value is “showed cytotoxicity”.

And the “reduction in viral genome copy” value [10]?
The value was 98.74% and 87.4%.
